The values that follow come from ChEMBL document CHEMBL3045699, “Three-dimensional quantitative structureactivity relationship approach for the prediction of the antimycobacterial activity of 4-oxo-dihydroquinoline-3-carboxylic acid derivatives” (2008).

The test relates to Mycobacterium tuberculosis. Briefly: Antimycobacterial activity against Mycobacterium tuberculosis. The settings on record: for MIC: Mycobacterium tuberculosis. The format is functional.

In brackets after ≈: the same amount, converted by molar mass.

As for `CNCC1CCN(c2ccc3c(=O)c(C(=O)O)cn(C(C)(C)C)c3c2)C1` (configuration not stated), the “log(1/C)” value is on record as 3.177 and the MIC worked out at 0.666 µM (≈ 0.238 µg/mL).
As to `CCCn1cc(C(=O)O)c(=O)c2ccc(N3CCNC(C)C3)cc21` (configuration not stated), the “log(1/C)” value was 2.222 and 6 µM (≈ 1.98 µg/mL) was the least that counted as inhibitory (MIC).
On the same counts, the results for `CCCn1cc(C(=O)O)c(=O)c2ccc(N3CCC(CNC)C3)cc21` (configuration not stated) are 1.638 and 23 µM (≈ 7.91 µg/mL).
On to `CCCn1cc(C(=O)O)c(=O)c2ccc(N3CCN(CC)CC3)cc21`, for which the “log(1/C)” value came to 2.842 and the MIC was found to be 1.44 µM (≈ 0.494 µg/mL).
The like results for `CN(C)CC1CCN(c2ccc3c(=O)c(C(=O)O)cn(C4CC4)c3c2)C1` (configuration not stated) were, in that order, 2.873 and 1.34 µM (≈ 0.476 µg/mL).
Turning to `CC1CN(c2ccc3c(=O)c(C(=O)O)cn(C(C)C)c3c2)CC(C)N1` (configuration not stated), the “log(1/C)” value is on record as 2.257 and the MIC was 5.53 µM (≈ 1.9 µg/mL).
Regarding `CC(C)n1cc(C(=O)O)c(=O)c2ccc(N3CCNCC3)cc21`, the “log(1/C)” value came out at 1.921 and the MIC was found to be 12 µM (≈ 3.78 µg/mL).
With `CC(C)N1CCN(c2ccc3c(=O)c(C(=O)O)cn(-c4c(F)cccc4F)c3c2)CC1`, the “log(1/C)” value worked out at 2.649 and the MIC amounted to 2.25 µM (≈ 0.96 µg/mL).
`O=C(O)c1cn(-c2c(F)cccc2F)c2cc(N3CCNCC3)ccc2c1=O`: the “log(1/C)” value was determined as 2.907 and the MIC worked out at 1.24 µM (≈ 0.478 µg/mL).
In the case of `CC1CN(c2ccc3c(=O)c(C(=O)O)cn(C(C)(C)C)c3c2)CCN1` (configuration not stated), the “log(1/C)” value came to 3.78 and the minimum inhibitory concentration (MIC) worked out at 0.166 µM (≈ 0.057 µg/mL).
On the same counts, the results for `CCCn1cc(C(=O)O)c(=O)c2ccc(N3CC(C)NC(C)C3)cc21` (configuration not stated) are 2.541 and 2.88 µM (≈ 0.989 µg/mL).
Consider `CNCC1CCN(c2ccc3c(=O)c(C(=O)O)cn(C(C)C)c3c2)C1` (configuration not stated), for which the “log(1/C)” value stood at 1.655 and inhibition of growth (MIC) required 22.1 µM (≈ 7.6 µg/mL).
With `O=C(O)c1cn(C2CCC2)c2cc(N3CCNCC3)ccc2c1=O`, the “log(1/C)” value was found to be 2.237 and the minimum inhibitory concentration (MIC) worked out at 5.79 µM (≈ 1.9 µg/mL).
For `CC1CN(c2ccc3c(=O)c(C(=O)O)cn(C4CC4)c3c2)CC(C)N1` (configuration not stated), the “log(1/C)” value came to 3.442 and it took 0.362 µM (≈ 0.124 µg/mL) to inhibit growth (MIC).
Consider `CNCC1CCN(c2ccc3c(=O)c(C(=O)O)cn(C4CCC4)c3c2)C1` (configuration not stated), for which the “log(1/C)” value stood at 1.97 and the MIC is 10.7 µM (≈ 3.81 µg/mL).
For the compound `NC1CCN(c2ccc3c(=O)c(C(=O)O)cn(-c4c(F)cccc4F)c3c2)C1` (configuration not stated), the “log(1/C)” value came out at 3.492 and inhibition of growth (MIC) required 0.322 µM (≈ 0.124 µg/mL).
Regarding `CC(C)CN1CCN(c2ccc3c(=O)c(C(=O)O)cn(C4CC4)c3c2)CC1`, the “log(1/C)” value was determined as 3.19 and the MIC came out at 0.645 µM (≈ 0.238 µg/mL).
On the same counts, the results for `CC1(CN)CCN(c2ccc3c(=O)c(C(=O)O)cn(C4CC4)c3c2)C1` (configuration not stated) are 3.777 and 0.167 µM (≈ 0.057 µg/mL).
On the same counts, the results for `CC(C)CN1CCN(c2ccc3c(=O)c(C(=O)O)cn(-c4c(F)cccc4F)c3c2)CC1` are 2.06 and 8.71 µM (≈ 3.84 µg/mL).
As to `NC1CCN(c2ccc3c(=O)c(C(=O)O)cn(C4CCC4)c3c2)C1` (configuration not stated), the “log(1/C)” value is reported as 2.556 and the MIC amounted to 2.78 µM (≈ 0.911 µg/mL).
With `CCCn1cc(C(=O)O)c(=O)c2ccc(N3CCC(N)C3)cc21` (configuration not stated), the “log(1/C)” value was determined as 1.902 and 12.5 µM (≈ 3.95 µg/mL) was the least that counted as inhibitory (MIC).
Take `CC1CN(c2ccc3c(=O)c(C(=O)O)cn(C4CC4)c3c2)CCN1` (configuration not stated): the “log(1/C)” value is 3.14 and the lowest concentration to inhibit growth (MIC) was 0.724 µM (≈ 0.237 µg/mL).
For `CC1CN(c2ccc3c(=O)c(C(=O)O)cn(C4CCC4)c3c2)CC(C)N1` (configuration not stated), the “log(1/C)” value was 2.873 and 1.34 µM (≈ 0.476 µg/mL) was the least that counted as inhibitory (MIC).
Consider `CCNCC1CCN(c2ccc3c(=O)c(C(=O)O)cn(C4CC4)c3c2)C1` (configuration not stated), for which the “log(1/C)” value worked out at 2.873 and it took 1.34 µM (≈ 0.476 µg/mL) to inhibit growth (MIC).
As to `CCN1CCN(c2ccc3c(=O)c(C(=O)O)cn(C4CC4)c3c2)CC1`, the “log(1/C)” value turned out to be 3.442 and the minimal inhibitory concentration (MIC) came to 0.362 µM (≈ 0.124 µg/mL).
`CCCn1cc(C(=O)O)c(=O)c2ccc(N3CCNCC3)cc21`: the “log(1/C)” value is on record as 2.203 and the MIC stood at 6.26 µM (≈ 1.98 µg/mL).
In the case of `CC1CN(c2ccc3c(=O)c(C(=O)O)cn(-c4c(F)cccc4F)c3c2)CC(C)N1` (configuration not stated), the “log(1/C)” value was 2.936 and inhibition of growth (MIC) required 1.16 µM (≈ 0.479 µg/mL).
For `CCC1CN(c2ccc3c(=O)c(C(=O)O)cn(C4CC4)c3c2)CCN1` (configuration not stated), the “log(1/C)” value is reported as 3.158 and 0.696 µM (≈ 0.238 µg/mL) was the least that counted as inhibitory (MIC).
In the case of `CC1CN(c2ccc3c(=O)c(C(=O)O)cn(-c4c(F)cccc4F)c3c2)CCN1` (configuration not stated), the “log(1/C)” value amounted to 2.922 and the lowest concentration to inhibit growth (MIC) was 1.2 µM (≈ 0.478 µg/mL).
For `CNCC1CCN(c2ccc3c(=O)c(C(=O)O)cn(-c4c(F)cccc4F)c3c2)C1` (configuration not stated), the “log(1/C)” value is on record as 3.237 and the MIC is 0.579 µM (≈ 0.239 µg/mL).
Regarding `CCNCC1CCN(c2ccc3c(=O)c(C(=O)O)cn(-c4c(F)cccc4F)c3c2)C1` (configuration not stated), the “log(1/C)” value is 2.95 and it took 1.12 µM (≈ 0.48 µg/mL) to inhibit growth (MIC).
The like results for `CC(C)n1cc(C(=O)O)c(=O)c2ccc(N3CCC(N)C3)cc21` (configuration not stated) were, in that order, 2.222 and 6 µM (≈ 1.89 µg/mL).
On the same counts, the results for `CN1CCN(c2ccc3c(=O)c(C(=O)O)cn(C4CC4)c3c2)CC1` are 3.14 and 0.724 µM (≈ 0.237 µg/mL).
As for `CCN1CCN(c2ccc3c(=O)c(C(=O)O)cn(C(C)C)c3c2)CC1`, the “log(1/C)” value came to 1.956 and it took 11.1 µM (≈ 3.8 µg/mL) to inhibit growth (MIC).
`CCCCN1CCN(c2ccc3c(=O)c(C(=O)O)cn(-c4c(F)cccc4F)c3c2)CC1`: the “log(1/C)” value is on record as 2.361 and the lowest concentration to inhibit growth (MIC) was 4.35 µM (≈ 1.92 µg/mL).
In the case of `CC1CN(c2ccc3c(=O)c(C(=O)O)cn(C(C)C)c3c2)CCN1` (configuration not stated), the “log(1/C)” value was 2.24 and it took 5.76 µM (≈ 1.9 µg/mL) to inhibit growth (MIC).
Take `CCCCN1CCN(c2ccc3c(=O)c(C(=O)O)cn(C4CC4)c3c2)CC1`: the “log(1/C)” value stood at 2.889 and it took 1.29 µM (≈ 0.477 µg/mL) to inhibit growth (MIC).
Turning to `CC(C)(C)n1cc(C(=O)O)c(=O)c2ccc(N3CCC(N)C3)cc21` (configuration not stated), the “log(1/C)” value turned out to be 3.427 and the MIC came out at 0.374 µM (≈ 0.123 µg/mL).
Turning to `CC1CN(c2ccc3c(=O)c(C(=O)O)cn(C(C)(C)C)c3c2)CC(C)N1` (configuration not stated), the “log(1/C)” value was 3.796 and the MIC worked out at 0.16 µM (≈ 0.0572 µg/mL).
On to `CNCC1CCN(c2ccc3c(=O)c(C(=O)O)cn(C4CC4)c3c2)C1` (configuration not stated), for which the “log(1/C)” value is reported as 2.857 and 1.39 µM (≈ 0.475 µg/mL) was the least that counted as inhibitory (MIC).
On to `CN1CCN(c2ccc3c(=O)c(C(=O)O)cn(-c4c(F)cccc4F)c3c2)CC1`, for which the “log(1/C)” value amounted to 2.922 and 1.2 µM (≈ 0.478 µg/mL) was the least that counted as inhibitory (MIC).
For `CCC1CN(c2ccc3c(=O)c(C(=O)O)cn(-c4c(F)cccc4F)c3c2)CCN1` (configuration not stated), the “log(1/C)” value stood at 2.635 and the lowest concentration to inhibit growth (MIC) was 2.32 µM (≈ 0.958 µg/mL).
For the compound `CCN1CCN(c2ccc3c(=O)c(C(=O)O)cn(-c4c(F)cccc4F)c3c2)CC1`, the “log(1/C)” value was 2.635 and 2.32 µM (≈ 0.958 µg/mL) was the least that counted as inhibitory (MIC).
Turning to `CCN1CCN(c2ccc3c(=O)c(C(=O)O)cn(C4CCC4)c3c2)CC1`, the “log(1/C)” value is 2.271 and it took 5.36 µM (≈ 1.9 µg/mL) to inhibit growth (MIC).
The like results for `O=C(O)c1cn(C2CC2)c2cc(N3CCNCC3)ccc2c1=O` were, in that order, 3.122 and 0.754 µM (≈ 0.236 µg/mL).
As to `CC(C)N1CCN(c2ccc3c(=O)c(C(=O)O)cn(C4CC4)c3c2)CC1`, the “log(1/C)” value is 3.174 and the MIC worked out at 0.669 µM (≈ 0.238 µg/mL).
`CC1CN(c2ccc3c(=O)c(C(=O)O)cn(C4CCC4)c3c2)CCN1` (configuration not stated): the “log(1/C)” value stood at 2.556 and the MIC is 2.78 µM (≈ 0.95 µg/mL).
On the same counts, the results for `CC(C)(C)n1cc(C(=O)O)c(=O)c2ccc(N3CCNCC3)cc21` are 3.427 and 0.374 µM (≈ 0.123 µg/mL).
As for `CCN1CCN(c2ccc3c(=O)c(C(=O)O)cn(C(C)(C)C)c3c2)CC1`, the “log(1/C)” value came to 3.461 and the MIC came out at 0.346 µM (≈ 0.124 µg/mL).
On the same counts, the results for `CC(C)NCC1CCN(c2ccc3c(=O)c(C(=O)O)cn(C4CC4)c3c2)C1` (configuration not stated) are 2.889 and 1.29 µM (≈ 0.477 µg/mL).
Regarding `NC1CCN(c2ccc3c(=O)c(C(=O)O)cn(C4CC4)c3c2)C1` (configuration not stated), the “log(1/C)” value is 3.122 and the minimal inhibitory concentration (MIC) was determined as 0.754 µM (≈ 0.236 µg/mL).
